{"source": "patent US12577247B2", "about": "(BUGWORKS RESEARCH, INC., priority 2021, dated 2026)", "key": {"[1]": {"tested_on": "CT-26 syngeneic colon cancer", "test": "In vivo efficacy on CT-26 syngeneic colon cancer mice model", "design": "species or system Balb/c mice", "settings": "PO, TID; for Decrease in tumor volume: by day 22", "protocol": "CT-26 syngeneic model of colon cancer in BALB/c is an established model and has been reported widely in literature for screening of compounds in efficacy studies for immune-oncology therapeutics.\nCT-26 Cell line expansion and sub-culturing: CT26 (CT26·WT, ATCC® CRL-2638) is an N-nitroso-N-methylurethane-(NNMU) induced, undifferentiated colon carcinoma cell line derived from Mus musculus, mouse colon tissue. Cells were cultured using standard techniques in RPMI 1640 with 10% FBS and 1× penicillin—streptomycin solution at 37° C. with 5% CO2 in a suitable incubator. Cell density was determined using a hemocytometer upon harvest and the cells were prepared in 100 μL of cold PBS in a microfuge tube and kept on ice until use for inoculations.\nMice: All animal studies were conducted in accordance with an Institutional Animal Care and Use Committee. 6- to 8-week-old Balb/c mice were typically housed in sterilized suspended standard, polysulfone cages, with stainless steel top grills having facilities for holding pelleted food and drinking water in polycarbonate bottles with stainless steel sipper tubes and environment enrichment objects in the vivarium for two weeks prior to tumor cell injection. The same conditions were maintained throughout the subsequent tumor engraftment and treatment evaluation.\nTumor engraftment: All animals were inoculated with 5×10^5/mouse in 100 μL subcutaneously in the lower right flank. Tumor growth was monitored twice a week from Day 4 onwards using a calibrated digital vernier caliper and the tumor volume calculated using the formula, tumor volume (mm3)=length×(width) 2/2. Once tumor volume reaches 100±50 mm^3 on Day 12, all animals were randomized into respective treatment groups as per study plan. See Table 1 for details regarding the setup and dosing of animals. Tumor volume at the time of randomization was 90 mm^3 There was no statistical significance in tumor volume at the time of treatment initiation. Post randomization, animals were treated with the test substance for 21 days. The average tumor volume/size in the treatment group allowed to reach up to 2500 mm^3, beyond this tumor size the animals to be sacrificed humanely as per general guidelines.\nFormulation and administration: Formulations were prepared with the components listed in Table 11 every day and mixed well before dosing each time and administered orally. The anti PD-1 antibody was administered via the intraperitoneal route.\nData is represented as Mean±SEM n=4-10, *p<0.05 Vs Vehicle, One-Way ANOVA followed by Dunnett's multiple comparison test. […] Significant decrease in tumor volume was observed on Day 18 and Day 22 compared to vehicle treatment."}, "Granzyme B": {"tested_on": "Granzyme B", "test": "Biomarker (Granzyme-B) FACS analysis in tumour samples from the efficacy study", "format": "in vivo, Balb/c mice", "settings": "30 mg/kg TID, Day 22, vs vehicle and anti-PD1 antibody groups", "protocol": "On Day 22, the animals from the efficacy study above were euthanized by overdose of gaseous anaesthesia and tumor samples were collected and their weights were recorded before evaluating for Granzyme-B by FACs analysis.\nApproximately 100 mg of tissue samples were homogenized, and the single cell suspensions were fixed and permeabilized using Miltenyi Biotec and BD kit-based reagents before staining with anti-Granzyme-B antibodies. Cells were subjected to FACS analysis while using isotype controls to ensure the specific binding of antibody and unstained cells as a negative control. The result obtained were analyzed using Flow Jo software and represented in FIG. 2."}}}
{"compound": "Cc1cccc(CCNc2nc3c(C)c(C)nn3c(N)c2C#N)n1", "note": "[Example 13, 7-amino-5-((2-(6-methylpyridin-2-yl)ethyl)amino)-2,3-dimethylpyrazolo[1,5-a]pyrimidine-6-carbonitrile]", "values": [{"measurement": "Change in tumor volume", "setting": "[1]; 1 mg/kg, vs vehicle", "result": "did not show significant change in tumor volume"}, {"measurement": "Decrease in tumor volume", "setting": "[1]; 3 mg/kg", "result": 35, "unit": "%"}, {"measurement": "Decrease in tumor volume", "setting": "[1]; 10 mg/kg", "result": 35, "unit": "%"}, {"measurement": "Decrease in tumor volume", "setting": "[1]; 30 mg/kg", "result": 48, "unit": "%"}, {"measurement": "Tumor Granzyme B expression", "setting": "Granzyme B", "result": "significant increase"}]}
